System: high-density cultured hippocampal neurons
Experiment: Biotinylation and quantitative western blot of surface expressed receptors
Type: cell-based, rat
Details: DHPG 50 μM, 5 min
Method: To confirm the effect of mGluR activation on surface AMPARs using an alternative approach, we treated high-density cultures with DHPG (50 μM, 5 min) or control medium and surface receptors were labeled with biotin 60 minutes later. Biotinylated receptors were precipitated and the ratio of surface to total GluR1 was determined by quantitative western blotting. This biochemical analysis confirmed that surface AMPARs are reduced by DHPG treatment to only 56.8±4.0% of the value in control cultures (n=4 in each treatment group; p<0.01; FIG. 6).
Biotinylation experiments were performed as previously described^35. Briefly, 2-week-old high-density cultured hippocampal neurons were treated with either control medium or 50 μM DHPG for 5 min, and incubated for 1 h at 37° C. to allow endocytosis to occur. The sister cultures were placed on ice to stop endocytosis and washed two times with ice-cold artificial cerebrospinal fluid (ACSF) containing 124 mM NaCl, 5 mM KCl, 1.25 mM NaH2PO4, 26 mM NaHCO3, 0.8 mM MgCl2, 1.8 mM CaCl2, 10 mM dextrose, and saturated with 95% O2, 5% CO2. Cultures were then incubated with ACSF containing 1 mg/ml Sulfo-NHS-LC-Biotin (Pierce Chemical Company, Rockford, Ill.) for 30 min on ice. Cultures were rinsed in TBS to quench the biotin reaction. […] Quantitative western blots were performed on both total and biotinylated (surface) proteins using anti-GluR1 C-terminal (1:1000, Upstate Biotechnology, Lake Placid, N.Y.) and anti-NR1 N-terminal antibodies (1:1000, Chemicon). […] Digital images, produced by densitometric scans of autoradiographs on a ScanJet IIcx (Hewlett Packard, Palo Alto, Calif.) with DeskScan II software (Hewlett Packard), were quantified using NIH Image 1.60 software. The surface/total ratio was calculated for each culture, and treatment groups were compared using a paired t-test. […] For display purposes, the data are expressed as the ratio of DHPG to control values.

**Q.** With NC(C(=O)O)c1cc(O)cc(O)c1 (racemic) [DHPG, (RS)-3,5-dihydroxyphenylglycine] as the molecule, how does the “surface NR1 (surface/total), % of the value in control cultures” value (60 minutes later, cycloheximide 60 μM with DHPG where named) read?
**A.** 32.3±8.2%

**Q.** What about the “surface GluR1 (surface/total), % of the value in control cultures” value (biotin labeling 60 minutes later) of the same molecule?
**A.** 56.8±4.0%
